Data on six compounds can be found in patent publication US20250042886A1, “BIS(HETERO)ARYL THIOETHER OXADIAZINES AS FUNGICIDAL COMPOUNDS” (Bayer Aktiengesellschaft, priority 2021, published 2025).

Series [1] can be described thus: Measurement of Log P values by HPLC on reversed phase columns (EEC directive 79/831 Annex V.A8). Format: physicochemical. The note with it: Table 1, compounds of formula (I); method [a]: LC-UV, acidic range, 0.1% formic acid in water and acetonitrile.
In series [2] the test system is Botrytis cinerea. Nature of the series: In vivo preventive test on Botrytis cinerea (grey mould). The note with it: 500 ppm of active ingredient, sprayed on young gherkin or cabbage plants 24 h before inoculation, evaluated 4 to 5 days after inoculation, read-out: efficacy. In a few lines: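 Young plants of gherkin or cabbage were sprayed with water-diluted compound formulated in DMSO/acetone/Tween 80, with solvent-only controls. Inoculation followed 24 h later by spraying an aqueous spore suspension of Botrytis cinerea onto leaves.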

Series [3] concerns Sphaerotheca fuliginea. The experiment in a line: In vivo preventive test on Sphaerotheca fuliginea (powdery mildew on cucurbits). The conditions noted are these: Podosphaera fuliginea, 192 h; 500 ppm of active ingredient, sprayed on young gherkin plants 24 h before inoculation; evaluated 8 days after inoculation; read-out: efficacy. Here is the method: B-3. […] The active ingredients were made soluble and homogenized in a mixture of Dimethyl sulfoxide/Acetone//Tween® 80 and then diluted in water to the desired concentration. The young plants of gherkin were treated by spraying the active ingredient prepared as described above. Control plants were treated only with an aqueous solution of Acetone/Dimethyl sulfoxide/Tween® 80. After 24 hours, the plants were contaminated by spraying the leaves with an aqueous suspension of Sphaerotheca fuliginea spores.

Series [4] deals with Colletotrichum lindemuthianum. The experiment in a line: In vivo preventive test on Colletotrichum lindemuthianum (leaf spot on bean). The conditions noted are these: 168 h, 500 ppm of active ingredient, sprayed on young bean plants 24 h before inoculation, evaluated 7 days after inoculation, read-out: efficacy. On the procedure: B-4. […] The active ingredients were made soluble and homogenized in a mixture of Dimethyl sulfoxide/Acetone//Tween® 80 and then diluted in water to the desired concentration. The young plants of bean were treated by spraying the active ingredient prepared as described above. Control plants were treated only with an aqueous solution of Acetone/Dimethyl sulfoxide/Tween® 80. After 24 hours, the plants were contaminated by spraying the leaves with an aqueous suspension of Colletotrichum lindemuthianum spores.

In series [5] the test system is Pyricularia oryzae. Nature of the series: microbe, parasite or virus in culture. In kind it is cell-based. The note with it: 120 h, read-out: efficacy (inhibition of fungal growth), 20 ppm of active ingredient, liquid culture, 5 days incubation.
The subject of series [6] is Colletotrichum lindemuthianum. The experiment in a line: Colletotrichum lindemuthianum in vitro cell test. Format: cell-based. The note with it: 144 h, 20 ppm of active ingredient, liquid culture, 6 days incubation, read-out: efficacy (inhibition of fungal growth). In outline: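 Inhibition of spore germination and mycelium growth, as absorbance relative to untreated wells, was read on day 6. Compounds from DMSO stocks were added to a spore suspension in glucose/peptone/yeast extract broth.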

Series [7] deals with Pyrenophora teres. The experiment in a line: Pyrenophora teres in vitro cell test. Format: cell-based. The conditions noted are these: 144 h, 20 ppm of active ingredient, liquid culture, 6 days incubation, read-out: efficacy (inhibition of fungal growth). In outline:
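Compounds in DMSO were added to P. teres spore suspensions in glucose/peptone/yeast-extract liquid medium, testing inhibition of spore germination and mycelium growth. After 6 days, mycelium growth was read by absorbance. Inhibition was calculated relative to fungicide-free control wells.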

Series [8] concerns Botrytis cinerea. The experiment in a line: Botrytis cinerea in vitro cell test. In kind it is cell-based. The note with it: 144 h, 20 ppm of active ingredient, liquid culture, 6 days incubation, read-out: efficacy (inhibition of fungal growth). In a few lines:
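Liquid-culture germination/growth test: spore suspension in synthetic medium (salts, urea, KNO3, saccharose, trace elements, thiamine, biotin) with compound dissolved in DMSO. Absorbance of mycelial growth measured at day 6, compared with untreated wells to give inhibition.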

For series [9], the system named is Septoria tritici. The experiment in a line: Septoria tritici in vitro cell test. The note with it: Zymoseptoria tritici, 168 h; 20 ppm of active ingredient; liquid culture, 7 days incubation; read-out: efficacy (inhibition of fungal growth). Format: cell-based. On the procedure:
B-11. Septoria tritici In Vitro Cell Test • Solvent: DMSO • Culture medium: 1 g KH2PO4 (VWR), 1 g K2HPO4 (VWR), 0.5 g Urea (VWR), 3 g KNO3 (Prolabo), 10 g saccharose (VWR), 0.5 g MgSO4, 7H2O (Sigma), 0.07 g CaCl2, 2H2O (Prolabo), 0.2 mg MnSO4, H2O (Sigma), 0.6 mg CuSO4, 5H2O (Sigma), 7.9 mg ZnSO4, 7H2O (Sigma), 0.1 mg H3BO3 (Merck), 0.14 mg NaMoO4, 2H2O (Sigma), 2 mg thiamine (Sigma), 0.1 mg biotine (VWR), 4 mg FeSO4, 7H2O (Sigma), QSP 1 liter • Inoculum: spore suspension Fungicides were solubilized in DMSO and the solution used to prepare the required range of concentrations. […] A spore suspension of S. tritici was prepared and diluted to the desired spore density. Fungicides were evaluated for their ability to inhibit spore germination and mycelium growth in liquid culture assay. The compounds were added in the desired concentration to the culture medium with spores. […] Inhibition of fungal growth was determined by comparing the absorbance values in wells containing the fungicides with the absorbance in control wells without fungicides.

The subject of series [10] is Alternaria brassicae. The experiment in a line: In vivo preventive test on Alternaria brassicae (leaf spot on radish or cabbage). The note with it: 500 ppm of active ingredient, sprayed on young radish or cabbage plants 24 h before inoculation, evaluated 3 to 4 days after inoculation, read-out: efficacy. In outline: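 Young radish or cabbage plants sprayed preventively with compound formulated in DMSO/acetone/Tween 80 and diluted in water; vehicle-treated plants as controls. Leaves inoculated by spraying an aqueous Alternaria brassicae spore suspension 24 h after treatment.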

The subject of series [11] is Alternaria alternata. Nature of the series: Alternaria alternata in vitro cell test. Format: cell-based. The note with it: 120 h, 20 ppm of active ingredient, liquid culture, 5 days incubation, read-out: efficacy (inhibition of fungal growth). In a few lines: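 Spores in glucose/mycological peptone/yeast extract liquid medium were exposed to DMSO-dissolved fungicides for 5 days. Inhibition of germination and mycelial growth was read spectrophotometrically, comparing absorbance against fungicide-free control wells.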

Series [12] concerns Fusarium culmorum. Nature of the series: Fusarium culmorum in vitro cell test. The conditions noted are these: 120 h, 20 ppm of active ingredient, liquid culture, 5 days incubation, read-out: efficacy (inhibition of fungal growth). In kind it is cell-based. In outline:
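Spores in liquid mineral-salts/saccharose medium exposed to compounds (DMSO ≤1% final) for 5 days. Mycelium growth measured spectrometrically, with inhibition derived from absorbance relative to fungicide-free control wells.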

As a reminder, the chromatographic logP is lipophilicity estimated from chromatographic retention. Usually inhibition stands for the change of the read-out against control, counted positive when it falls.

Turning to `Cc1ccc(C[C@H]2CON=C(c3nc(C)ncc3Sc3cccc(C(F)(F)F)c3)N2)c(C)c1` (racemic) [Compound I-007], in [1], the chromatographic logP was 5.21. In addition, the pest or weed control at 500 ppm in series [2], in series [3] and in series [4] was 90 to 100% in each case. For the same compound, the inhibition at 20 ppm in [5] fell in the range of 70 to 79%; in [6] it was 90 to 100%; in series [7] it was 90 to 100%; in [8] it was 90 to 100%; in series [9], 80 to 89%.
`Cc1ccc(C[C@H]2CON=C(c3nc(C)ncc3Sc3cccc(C(F)(F)F)c3)N2)c(Cl)c1` (racemic) [Compound I-013]: in [1], the chromatographic logP came to 5.28. The pest or weed control at 500 ppm in [10] was in the range of 80 to 89%; in series [2], 90 to 100%; in series [3] it was 90 to 100%; in [4], 90 to 100%. The inhibition at 20 ppm in series [6], in [8] and in series [9] was 90 to 100% each time.
As to `Clc1ccc(C[C@@H]2CON=C(c3cc(Cl)nnc3Sc3cccc(Br)c3)N2)c(Cl)c1` (racemic) [Compound I-005], the chromatographic logP in [1] came to 4.88. For the same compound, the pest or weed control at 500 ppm was in the range of 90 to 100% in series [2] and 80 to 89% in [3]. Also, the inhibition at 20 ppm in [5], in series [6] and in series [8] was 90 to 100% throughout.
In series [1], `Cc1ccc(CC2CON=C(c3cc(Cl)nnc3Sc3cccc(C(F)(F)F)c3)N2)c(C)c1` (racemic) [Compound I-017, (5RS)-3-(6-chloro-3-{[3-(trifluoromethyl)phenyl]sulfanyl}pyridazin-4-yl)-5-(2,4-dimethylbenzyl)-5,6-dihydro-4H-1,2,4-oxadiazine] had a chromatographic logP of 5.27. Further, the pest or weed control at 500 ppm in [10], in series [2], in series [3] and in series [4] was 90 to 100% throughout. Besides, the inhibition at 20 ppm in series [11] was 80 to 89%; in series [5], 80 to 89%; in series [6] it was 90 to 100%; in [8] it was 90 to 100%; in [9], 90 to 100%.
`FC(F)(F)c1ccc(Sc2nnc(Cl)cc2C2=NOC[C@@H](Cc3ccc(Br)cc3Cl)N2)cc1` (racemic) [Compound I-035] had a chromatographic logP in series [1] of 5. Further, the pest or weed control at 500 ppm was in the range of 90 to 100% in [2], 80 to 89% in [3] and 90 to 100% in [4].
`Cc1cccc(Sc2cnc(C)nc2C2=NOC[C@@H](Cc3ccc(C)cc3Cl)N2)c1` (racemic) [Compound I-010] came in with a chromatographic logP in series [1] of 5.17. For the same compound, the pest or weed control at 500 ppm in [10] was 80 to 89%; in series [2], 90 to 100%; in series [3], 90 to 100%; in [4] it was 90 to 100%. In addition, the inhibition at 20 ppm in series [6], in series [7], in series [12] and in [9] was 90 to 100% each time.
